According to patent publication US20260355171A1, “INHIBITORS AND USES THEREFOR” (priority 2022, published 2026):

Key:
[1] = tested on: primary neurons expressing SARS-CoV-2 NSP5 (AAV9-NSP5-V5); assay: Effect on neurons in the presence of NSP5 (AAV9-NSP5-V5, immunofluorescence); format: cell-based, mouse; details: 0.4, 2, 10 or 50 μM, two days
[2] = tested on: primary neurons; assay: Neuronal cell death in the presence of NMDA; format: cell-based, mouse; details: 1 or 10 μM compound, 100 μM NMDA
Experimental: (§1) Primary neurons were treated with 0.4, 1, 2, 10 or 50 μM of compound 2 or compound 22 (prepared according to Example 2). NSP5 was added to primary neurons at DIV11, and compound 2 or 22 was added 48 hours later. Cells were treated with propidium iodide 48 hours after compound addition. Cells were washed with PBS and fixed with 4% PFA. Cells were then washed and stained with DAPI. Images of cells were taken with ZEISS Axioscan 7 microscope slide scanner. Cell death was determined by Image J analysis, counting the death cell (red, PI)) vs all cells (blue, DAPI).
(§2) One hour after compound addition (1 or 10 μM of compound 2 or compound 22) neurons were treated with a cytotoxic agent (100 μM N-methyl-D-aspartate (NMDA), 100 μM H2O2 or 5 μM staurosporine). One hour after treatment with the cytotoxic agent, the media was replaced with fresh media and the neurons were incubated for 24 hours. A final concentration of 1 μM propidium iodide (PI) was added into the well and incubated for 5 mins. Cells were washed with phosphate-buffered saline (PBS) and then fixed with 4% PFA. Cells were then washed and stained with DAPI, and cell death determined as described above.

[3] = tested on: primary neurons; assay: Neuronal cell death in the presence of H2O2; format: cell-based, mouse; details: 1 or 10 μM compound, 100 μM H2O2
Experimental: as §1, §2

[4] = tested on: primary neurons; assay: Neuronal cell death in the presence of staurosporine; format: cell-based, mouse; details: 1 or 10 μM compound, 5 μM staurosporine
Experimental: as §1, §2

[5] = tested on: primary neurons; assay: Cytotoxicity / neuronal cell death in the presence of NSP5 (PI/DAPI)
[6] = tested on: primary neurons; assay: Effect of compounds on neuronal cell death caused by NSP5 (Example 6); format: cell-based, mouse; details: 10 μM, 48 hours

NC(=O)C1CCN(c2ncccc2CNC(=O)c2cccc3ccsc23)CC1 [Compound 2]
Prevention of NSP5-induced neuronal death [1]: prevented NSP5-induced neuronal death in a dose-dependent manner
Protection from NMDA-induced neurotoxicity [2]: did not protect
Protection from H2O2-induced neurotoxicity [3]: did not protect
Protection from staurosporine-induced neurotoxicity [4]: did not protect
Reduction of neuronal cell death caused by NSP5 ([5]; 0.4, 1, 2, 10 or 50 μM, 48 hours): selectively reduced neuronal cell death caused by NSP5
Cell death caused by compound ([5]; therapeutic concentrations (nM to low μM)): did not cause any cell death

NC(=O)C1CCN(c2ncccc2CNC(=O)c2cc(F)cc(C(F)(F)F)c2)CC1 [Compound 35]
Reduction of neuronal cell death caused by NSP5 [6]: greatest activity
